Structures can show the parent of a compound that is named as a salt.
Molecular target: T1, human FXa (Homo sapiens, UniProt P00742)
T1 construct: purchased Cosmobio ERL HFXa-1011
Assay: Determination of FXa-inhibiting effect (IC50 value), chromogenic substrate S2222
Assay type: biochemical
Conditions: 0.05 U/ml human FXa, substrate S2222, absorbance at 405 nm, room temperature, pH 7.4 buffer

T1 sequence (P00742 235-488 limits assumed): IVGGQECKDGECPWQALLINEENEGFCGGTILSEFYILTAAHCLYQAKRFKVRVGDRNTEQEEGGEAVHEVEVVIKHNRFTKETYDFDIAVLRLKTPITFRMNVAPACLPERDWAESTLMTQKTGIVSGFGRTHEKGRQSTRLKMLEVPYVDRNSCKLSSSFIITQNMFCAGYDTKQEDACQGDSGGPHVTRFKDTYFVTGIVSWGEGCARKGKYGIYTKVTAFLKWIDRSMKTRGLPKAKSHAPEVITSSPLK
T1 sequence (P00742 41-179 partner limits assumed): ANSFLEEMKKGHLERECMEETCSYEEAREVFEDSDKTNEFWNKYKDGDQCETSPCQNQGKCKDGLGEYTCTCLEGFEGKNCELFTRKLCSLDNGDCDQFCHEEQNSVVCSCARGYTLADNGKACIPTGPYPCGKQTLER

Row | Compound | IC50 [nM]
1 | CN1CCc2nc(C(=O)N[C@@H]3CCC[C@H]3NC(=O)c3cc4cc(Cl)ccc4[nH]3)sc2C1 (racemic) [Example 3, (±)-trans-N^1-[(5-Chloroindol-2-yl)carbonyl]-N^2-[(5-methyl-4,5,6,7-tetrahydrothiazolo[5,4-c]pyridin-2-yl)carbonyl]-1,2-cyclopentanediamine hydrochloride] | 86
2 | CN1CCc2nc(C(=O)N[C@@H]3CCCC[C@@H]3NC(=O)c3ccc4cc(Cl)ccc4c3)sc2C1 (racemic) [Example 10, (±)-cis-N^1-[(6-Chloronaphthalen-2-yl)carbonyl]-N^2-[(5-methyl-4,5,6,7-tetrahydrothiazolo[5,4-c]pyridin-2-yl)-carbonyl]-1,2-cyclohexanediamine hydrochloride] | 83
3 | CN1CCc2nc(C(=O)N[C@@H]3CCCC[C@@H]3NC(=O)c3cc4cc(Br)ccc4[nH]3)sc2C1 (racemic) [Example 15, (±)-cis-N^1-[(5-Bromoindol-2-yl)carbonyl]-N^2-[(5-methyl-4,5,6,7-tetrahydrothiazolo[5,4-c]pyridin-2-yl)carbonyl]-1,2-cyclohexanediamine hydrochloride] | 92
4 | CN1Cc2nc(C(=O)N[C@@H]3CCCC[C@@H]3NC(=O)c3cc4cc(Cl)ccc4[nH]3)sc2C1 (racemic) [Example 41, (±)-cis-N^1-[(5-Chloroindol-2-yl)carbonyl]-N^2-[(5-methyl-4,6-dihydro-5H-pyrrolo[3,4-d]thiazol-2-yl)carbonyl]-1,2-cyclohexanediamine hydrochloride] | 36
5 | CC(C)N1CCc2nc(C(=O)N[C@@H]3CC(CO)C[C@H]3NC(=O)c3cc4cc(Cl)ccc4[nH]3)sc2C1 (single isomer, unassigned; stereoisomer b) [Example 68, (1R*,2R*)-N^1-[(5-Chloroindol-2-yl)carbonyl]-4-hydroxymethyl-N^2-[(5-isopropyl-4,5,6,7-tetrahydro-thiazolo[5,4-c]pyridin-2-yl)carbonyl]-1,2-cyclopentanediamine hydrochloride (Stereoisomer B)] | 4.1
6 | CC(C)(CO)N1CCc2nc(C(=O)N[C@@H]3CC(CO)C[C@H]3NC(=O)c3cc4cc(Cl)ccc4[nH]3)sc2C1 (single isomer, unassigned; stereoisomer b) [Example 70, (1R*,2R*)-N^1-[(5-Chloroindol-2-yl)carbonyl]-N^2-[5-(1-dimethyl-2-hydroxyethyl)-4,5,6,7-tetrahydrothiazolo-[5,4-c]pyridin-2-yl)carbonyl]-4-hydroxymethyl-1,2-cyclopentanediamine hydrochloride (Stereoisomer B)] | 2.7
7 | CN1CCc2nc(C(=O)N[C@@H]3C[C@@H](CO)CC[C@H]3NC(=O)c3cc4cc(Cl)ccc4[nH]3)sc2C1 [Example 176, (1R,2R,4S)—N^1-[(5-Chloroindol-2-yl)carbonyl]-4-hydroxymethyl-N^2-[(5-methyl-4,5,6,7-tetrahydrothiazolo[5,4-c]pyridin-2-yl)carbonyl]-1,2-cyclohexanediamine] | 3.3
8 | (±)-cis-N^1(or N^2)-[(5-Chloroindol-2-yl)carbonyl]-4,4-(1,2-ethylenedioxy)-N^2(or N^1)-[(5-methyl-4,5,6,7-tetrahydrothiazolo[5,4-c]pyridin-2-yl)carbonyl]-1,2-cyclohexanediamine [Example 167] | 1.4

Source: patent publication US7935824B2, “Ethylenediamine derivatives” (Daiichi Pharmaceutical Co., Ltd., priority 2000, dated 2011)
